Measurements from ChEMBL document CHEMBL3430912, “GSK Tres Cantos Anti-Kinetoplastid Screening (TCAKS) Data”.

Experiments:
Trypanosoma cruzi [1] = assay: (§1) GSK_TCAKS: pIC50 Trypanosoma cruzi Imaging: Infected Cells. […] Cells were then washed once with PBS before infection. T. cruzi trypomastigotes, collected at days 5 to 8 after infection from LLC-MK2 parasite infected cultures, were allowed to swim out for 4h at 37C from a centrifuged pellet (2,500 rpm/10 min/room temperature). Trypomastigotes were then collected and counted in a CASY Cell Counter. Trypomastigotes, in supplemented DMEM, were added to H9c2 cultures in a multiplicity of infection of 1 and incubated for 18 h. Cells were washed once with PBS before incubation of the infected H9c2 monolayer with trypsin (Life-Technologies) to detach cells from the flask. Cells were counted in a CASY Cell Counter using a 150 um capillary and their density set at 5 * 10^4 cells per mL in supplemented assay DMEM. Infected H9c2 were dispensed into 384-well poly-lysine coated assay plates at 50uL per well using a Multidrop Combi dispenser. After seeding them, the plates were incubated at 37C, 5% CO2 for 72h. Cultures were then fixed and stained by addition of 50 uL of a solution containing 8% formaldehyde and 4 uM DRAQ5 DNA dye (BioStatus, UK) per well. […] Five images were collected per well for reliable statistical analysis. Automated image analysis was performed with a script developed on Acapella High Content Imaging and Analysis Software (PerkinElmer). Output: percentage of infected cells per well as a second infection marker.; type: functional, organism-based, Rattus norvegicus; conditions: H9c2, 4 h
Leishmania donovani [2] = assay: (§2) GSK_TCAKS: pIC50 Leishmania donovani Imaging: THP-1 Host Macrophages. Assay plates (384-well) were prepared by adding 250nL of compound to each well. For single shot assay, the final compound concentration was 5 uM. […] Automated image analysis was performed with a script developed on Acapella High Content Imaging and Analysis Software (PerkinElmer). Output: THP-1 cell count were reported for each well.; type: functional, organism-based, Homo sapiens
Leishmania donovani [3] = assay: as §2, with “Infected” for “THP-1 Host”, “Percent of infected macrophage cells” for “THP-1 cell count”; type: functional, organism-based, Homo sapiens; conditions: THP-1
[4] = tested on: Trypanosoma brucei brucei; assay: GSK_TCAKS: pIC50 Trypanosoma brucei viability assay using luminiscence. Assay plates (1536-well) were prepared. T. brucei cultures were harvested and counted in a CASY cell counter. A parasite suspension was prepared at a final concentration of 5 * 10^4 cells/mL in complete HMI9 medium and 6uL was dispensed to all wells containing compounds using a Multidrop Combi dispenser. 6uL of HMI9 media with 0.4% DMSO were dispensed to control columns. Plates were incubated for 24 h at 37C, 5% CO2 then tempered for 10 min at room temperature. ATP content was quantified by adding 4 uL of CellTiter-Glo Reagent (Promega) according to the manufacturer's instructions. Luminescence was measured using a ViewLux.; type: functional, organism-based; conditions: Lister 427, CASY
[5] = molecular target: Sterol 14-alpha demethylase (Trypanosoma cruzi (strain CL Brener), UniProt Q7Z1V1); assay: GSK_TCAKS: pIC50 CYP51 from Trypanosoma cruzi.; type: functional
[6] = tested on: Trypanosoma brucei brucei; assay: GSK_TCAKS: pIC50 Trypanosoma brucei viability assay using fluorescence intensity. Assay plates (1536-well) were prepared by dispensing 25nL of compound solution per well using an Echo acoustic dispenser (Labcyte).; type: functional, organism-based; conditions: Lister 427, 2 h
Leishmania donovani [7] = assay: GSK_TCAKS: pIC50 Leishmania donovani viability assay using fluorescence intensity. Assay plates (1536-well) were prepared by adding 30nL per well of compound. For single shot assay, the final compound concentration was 5uM. […] Briefly, eGFP LdBOB axenic amastigotes were harvested, fixed and counted in a CASY cell counter (Roche-Applied Science). A final concentration of 1.5 * 10^5 cells per well were prepared in amastigote media containing 500 U/mL penicillin/streptomycin (Invitrogen) and 6uL was dispensed to each experimental well using a Multidrop Combi dispenser (Thermo Scientific). 6uL of assay media was dispensed to control columns used as reference for 100% compound response. Following incubation for 72 h at 37C, 5% CO2, 2 uL of resazurin was added to each well at a final concentration of 0.5 mM in phosphate buffered saline (PBS) with IGEPAL (Sigma-Aldrich), 0.05% (v/v).; type: functional, organism-based
Trypanosoma cruzi [8] = assay: as §1, with “H2C9” for “Trypanosoma cruzi”, “H9c2 Host Cardiomyocytes.” for “Infected Cells.”, “Number” for “percentage”, “H9c2 Host Cardiomyocytes nuclei to determine drug-related cytotoxicity.” for “infected cells per well as a second infection marker.”; type: functional, organism-based, Rattus norvegicus; conditions: H9c2, 4 h
Leishmania donovani [9] = assay: as §2, with “Amastigotes/Macrophages.” for “THP-1 Host Macrophages.”, “Average number of amastigotes per macrophage” for “THP-1”, “cell” for “cell count”; type: functional, organism-based, Homo sapiens; conditions: THP-1
Trypanosoma cruzi [10] = assay: GSK_TCAKS: pIC50 Trypanosoma cruzi Imaging: Amastigotes/Cell. […] Cells were then washed once with PBS before infection. T. cruzi trypomastigotes, collected at days 5 to 8 after infection from LLC-MK2 parasite infected cultures, were allowed to swim out for 4h at 37C from a centrifuged pellet (2,500 rpm/10 min/room temperature). Trypomastigotes were then collected and counted in a CASY Cell Counter. Trypomastigotes, in supplemented DMEM, were added to H9c2 cultures in a multiplicity of infection of 1 and incubated for 18 h. Cells were washed once with PBS before incubation of the infected H9c2 monolayer with trypsin (Life-Technologies) to detach cells from the flask. Cells were counted in a CASY Cell Counter using a 150 um capillary and their density set at 5 * 10^4 cells per mL in supplemented assay DMEM. Infected H9c2 were dispensed into 384-well poly-lysine coated assay plates at 50uL per well using a Multidrop Combi dispenser. After seeding them, the plates were incubated at 37C, 5% CO2 for 72h. Cultures were then fixed and stained by addition of 50 uL of a solution containing 8% formaldehyde and 4 uM DRAQ5 DNA dye (BioStatus, UK) per well. […] Five images were collected per well for reliable statistical analysis. Automated image analysis was performed with a script developed on Acapella High Content Imaging and Analysis Software (PerkinElmer). Output: number of amastigotes per cell as infection level measurement.; type: functional, organism-based, Rattus norvegicus; conditions: H9c2, 4 h
NIH3T3 = assay: GSK_TCAKS: pIC50 NIH 3T3 cell line viability assay using luminiscence. Tissue culture surface treated assay plates (1536-well) were used. […] The 100% cells survival control was determined exposing the host-cells to a 0.5% DMSO concentration, whereas the 100% toxicity control was achieved by seeding the cells in presence of Amphotericin B at 50uM. Plates were incubated for four days at 37C, 5% CO2. The assay readout was developed by addition of 5uL of CellTiter-Glo Reagent following the manufacturer's instructions. Luminiscence was measured using a ViewLux.; type: functional, cell-based; conditions: Mus musculus, NIH3T3, 96 h
[11] = GSK_TCAKS: pIC50 HepG2 human cell line viability assay using luminiscence. […] Seeding density was checked to ensure that new mono-layers were not more than 50% confluent at the time of harvesting. Cell suspension was added to 500 mL of the same medium at a final density of 1.2 * 10^5 cells/mL. This cell suspension was dispensed (25 uL, 3000 cells per well) into 384-well clear-bottom plates using a Multidrop Combi dispenser. Prior to addition of the cell suspension, the screening compounds (250 nL) were pre-dispensed into the plates with an Echo liquid handler. Plates were incubated for 48 h at 37C, 5% CO2. After incubation, plates equilibrated at room temperature for 30 min before proceeding to develop the luminescent signal. The signal developer, CellTiter-Glo Reagent, was allowed to equilibrate at room temperature for 30 min and added to the plates (25uL per well) using a Multidrop Combi dispenser. Plates were left for 10 min at room temperature for stabilization and then read using a ViewLux.; type: toxicity, cell-based
Trypanosoma cruzi [12] = assay: GSK_TCAKS: pIC50 Trypanosoma cruzi viability assay using beta-GAL activity. This assay was run at single shot at 5uM compound concentration per well. The biological reagents consisted of NIH-3T3 host cells and trypomastigotes parasitic cells; both cell types were set to a 3.3 * 10^5 cells/mL dilution in assay DMEM by means of a CASY cell counter device using a 60um capillary. 6 uL of the mixture were dispensed per well (about 1 * 10^3 host-cells and 1 * 10^3 parasites) with a Multidrop Combi dispenser. […] In all wells, the percentage of DMSO never exceeded 0.5%. Plates incubated for four days at 37C, 5% CO2. The substrate used for the assay fluorescence intensity (FLINT) readout was resorufin-beta-D-galactopiranoside (Sigma-Aldrich) at 5uM per well. It was diluted in PBS supplemented with the soft detergent Igepal (Fluka).; type: functional, organism-based, Mus musculus; conditions: Tulahuen, NIH3T3

Sterol 14-alpha demethylase, sequence (Q7Z1V1 whole entry): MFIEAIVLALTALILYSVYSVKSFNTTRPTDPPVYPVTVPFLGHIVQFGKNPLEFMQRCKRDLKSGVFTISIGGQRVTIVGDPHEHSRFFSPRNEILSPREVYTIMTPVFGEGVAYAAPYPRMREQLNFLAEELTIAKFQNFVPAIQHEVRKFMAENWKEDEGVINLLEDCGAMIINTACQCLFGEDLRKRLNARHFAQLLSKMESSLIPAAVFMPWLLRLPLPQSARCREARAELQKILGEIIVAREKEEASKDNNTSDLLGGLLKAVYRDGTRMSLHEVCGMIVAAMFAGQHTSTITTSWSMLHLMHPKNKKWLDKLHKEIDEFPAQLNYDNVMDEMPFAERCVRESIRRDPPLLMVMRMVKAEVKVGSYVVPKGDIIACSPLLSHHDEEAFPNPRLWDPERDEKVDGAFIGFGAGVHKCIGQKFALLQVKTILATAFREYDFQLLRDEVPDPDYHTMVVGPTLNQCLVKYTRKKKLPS

Row | SMILES | IC50 (Trypanosoma cruzi [1]) | IC50 (Leishmania donovani [2]) | IC50 (Leishmania donovani [3]) | IC50 [4] | IC50 [5] | IC50 [6] | IC50 (Leishmania donovani [7]) | IC50 (Trypanosoma cruzi [8]) | IC50 (Leishmania donovani [9]) | IC50 (Trypanosoma cruzi [10]) | IC50 (NIH3T3) | IC50 at 48 h [11] | IC50 (Trypanosoma cruzi [12])
1 | COc1ccc(-c2nc3ncccc3o2)cc1NC(=O)c1cccs1 | 2.51 µM | 20 µM | > 50.1 µM | 2.51 µM | > 100 µM | 1.26 µM | 5.01 µM | > 50.1 µM | > 50.1 µM | 2 µM | > 50.1 µM | > 100 µM | 2 µM
2 | CN(C)CCN(C)Cc1ccc(F)cc1NS(=O)(=O)c1ccc(Cl)c(Cl)c1 | 2.51 µM | 31.6 µM | 7.94 µM | 5.01 µM | > 126 µM | 5.01 µM | 7.94 µM | 6.31 µM | 2.51 µM | 2 µM | 15.8 µM | 39.8 µM | 1.58 µM
3 | Cn1nc([N+](=O)[O-])nc1Oc1ccc(C(=O)c2ccccc2)cc1 | 0.316 µM | > 50.1 µM | > 50.1 µM | > 39.8 µM | > 100 µM | 20 µM | > 50.1 µM | > 50.1 µM | > 50.1 µM | 0.126 µM | > 50.1 µM | > 100 µM | 0.251 µM
4 | CN1CCCN(C(=O)c2ccc(N3CCCC3)cc2Cl)CC1 | 1 µM | > 50.1 µM | > 50.1 µM | > 39.8 µM | > 100 µM | > 39.8 µM | 39.8 µM | > 50.1 µM | > 50.1 µM | 0.631 µM | 25.1 µM | > 100 µM | 0.891 µM
5 | COc1ccc(C2CC(c3ccccc3Cl)=NN2C(=O)CNC(=O)C2CCC2)cc1 (centres undefined) | 1.58 µM | > 50.1 µM | > 50.1 µM | 0.501 µM | 50.1 µM | 0.316 µM | > 50.1 µM | > 50.1 µM | > 50.1 µM | 1 µM | 31.6 µM | > 100 µM | 2.82 µM
6 | CCC(=O)Nc1ccc(-c2nc3ccc(Cl)cc3[nH]2)cc1 | 1.58 µM | > 50.1 µM | > 50.1 µM | > 39.8 µM | > 100 µM | 6.31 µM | > 50.1 µM | > 50.1 µM | > 50.1 µM | 0.501 µM | > 50.1 µM | > 100 µM | 2 µM
7 | N#Cc1cc([N+](=O)[O-])ccc1NC1CCCCCC1 | 2 µM | > 50.1 µM | > 50.1 µM | 3.16 µM | > 100 µM | 2.51 µM | > 50.1 µM | > 50.1 µM | > 50.1 µM | 1.26 µM | > 50.1 µM | > 100 µM | 2.51 µM
8 | Cc1nnnn1-c1cccc(C(=O)N2CCC[C@@]3(C)c4ncncc4CCC23)c1 (some centres undefined) | 0.316 µM | > 50.1 µM | > 50.1 µM | > 39.8 µM | 25.1 µM | > 39.8 µM | 0.398 µM | > 50.1 µM | 6.31 µM | 0.316 µM | > 50.1 µM | > 100 µM | 0.631 µM
